Measured values published in patent US8158168B2, “Anti-gastritis and anti-ulcer agent containing Momordicae semen extract and momordica saponin I isolated from the same” (SK Chemicals Co., Ltd., priority 2005, dated 2012).

How the values were obtained:
[1] = tested on: damage of gastric mucosa induced by alcohol; assay: Protective effect against stomach damage induced by alcohol (momordica saponin I, Example 2); assay type: in vivo, Sprague-Dawley rats; conditions: rat, momordica saponin I 20 mg/kg, Mucosta 100 mg/kg, 30 minutes before 1.5 mL 100% ethanol oral, observed 3 hours later; for gastric mucosa damage index ± standard deviation: Bleeding / gastric mucosa damage index ± standard deviation: Edema / gastric mucosa damage index ± standard deviation: Erosion / gastric mucosa damage index ± standard deviation: Flare / gastric mucosa damage index ± standard deviation: Hyperemia: points 0 to 3
Method: A rat model test was performed using 100% ethanol as stomach damage inducing factor to evaluate the protective effect of momordica saponin I for gastric mucosa. The momordica saponin I isolated in Preparative Example 5 was dissolved in 0.5% aqueous carboxymethyl cellulose solution to 2 mg/mL and was used as a test drug. Mucosta (rebamipide, Korea Otsuka Pharmaceuticals) dissolved in 0.5% aqueous carboxymethyl cellulose solution to 10 mg/mL was used as control drug.
(§1) Seven-week-old specific pathogen free (SPF) male Sprague-Dawley rats were purchased from Charles River. After 1 week of adaptation, healthy rats with a weight of 220-225 g were selected for the test. Five rats per each group were fasted for 18 hours with drinking water freely available. Momordica saponin I were administered at a dosage of 20 mg/kg and the control drug Mucosta were administered at a dosage of 100 mg/kg. After 30 minutes, 1.5 mL of 100% ethanol was orally administered. 3 hours later, the rats were anesthetized with ether and the stomach was taken out in order to evaluate the drug's effect of preventing the stomach damage. […] The damage of the stomach was classified into flare, congestion, hemorrhage, inflammation and edema. The severity of the damage was evaluated with points ranging from 0 to 3 (the higher the point, the severer the damage.).

Sprague-Dawley rats = assay: Acute toxicity test for oral administration of momordica saponin I in rats (Example 8); assay type: in vivo; conditions: rat
Method: Acute toxicity test was performed as follows using 6-week-old specific pathogen free (SPF) Sprague-Dawley rats
To two rats per each group, the momordica saponin I isolated in Preparative Example 5 was orally administered once at a dosage of 400 mg/kg. Survival, clinical manifestations and body weight change were observed and hematological and serum biochemical analysis was performed. Autopsy was performed to observe abnormalities in abdominal and thoracic organs.

[2] = tested on: secretion of gastric acid; assay: Gastric acid secretion inhibition test in rats (Example 6); assay type: in vivo, Sprague-Dawley rats; conditions: 1 hour later, gastric juice diluted 10 times with distilled water
Method: Momordica saponin I was orally administered to Sprague-Dawley rats and the acidity in the stomach was measured in order to evaluate the effect of momordica saponin I on the secretion of gastric acid. The momordica saponin I isolated in Preparative Example 4 was dissolved in 0.5% aqueous carboxymethyl cellulose solution to concentrations of 0.5, 1.5 and 4.5 mg/mL. 7-week-old specific pathogen free (SPF) male Sprague-Dawley rats were purchased from Charles River. After 1 week of adaptation, healthy rats with a weight of 220-225 g were selected for the test. Two rats per each group were fasted for 18 hours with drinking water freely available and momordica saponin I were administered at dosages of 5, 15 and 45 mg/kg. 1 hour later, the rats were anesthetized with ether. 0.5 mL of the gastric juice taken from the stomach was diluted 10 times with distilled water to obtain a 5 mL sample. The pH of the diluted gastric juice was measured with a pH meter.

[3] = tested on: stomach damage induced by diclofenac; assay: Protective effect of momordica saponin I against stomach damage induced by diclofenac (Example 5); assay type: in vivo, Sprague-Dawley rats; conditions: rat, diclofenac 40 mg/kg oral and at the same time momordica saponin I 20 mg/kg or Mucosta 100 mg/kg oral; observed 4 hours later; points 0 to 3
[4] = tested on: stomach damage induced by diclofenac; assay: as above; assay type: in vivo, Sprague-Dawley rats; conditions: rat, diclofenac 40 mg/kg oral and at the same time momordica saponin I 20 mg/kg or Mucosta 100 mg/kg oral, observed 4 hours later; for gastric mucosa damage index ± standard deviation: Bleeding / gastric mucosa damage index ± standard deviation: Edema / gastric mucosa damage index ± standard deviation: Flare / gastric mucosa damage index ± standard deviation: Hyperemia: points 0 to 3
Method: Diclofenac and the test drug were administered simultaneously and the damage of gastric mucosa was observed 4 hours later. Diclofenac was dissolved in 0.5% aqueous carboxymethyl cellulose solution to […] and the test drug was prepared as in Example 2.
(§2) Seven-week-old specific pathogen free (SPF) male Sprague-Dawley rats were purchased from Charles River. After 1 week of adaptation, healthy rats with a weight of 220-225 g were selected for the test. Five rats per each group were fasted for 18 hours with drinking water freely available and diclofenac was orally administered at a dosage of 40 mg/kg and, at the same time, the test drug, or momordica saponin I, was orally administered at a dosage of 20 mg/kg and the control drug Mucosta was orally administered at a dosage of 100 mg/kg. 4 hours later, the rats were anesthetized with ether and the stomach was taken out in order to evaluate the drug's effect of treating gastritis. […] The damage of the stomach was classified into flare, congestion, hemorrhage, inflammation and edema. The severity of the damage was evaluated with points ranging from 0 to 3 (The higher the point, the severer the damage).

[5] = tested on: stomach damage induced by diclofenac; assay: Healing effect on stomach damage induced by diclofenac (Example 3); assay type: in vivo, Sprague-Dawley rats; conditions: rat, diclofenac 40 mg/kg oral, drugs 100 mg/kg 6 hours after, observed 18 hours later
Method: A rat model test was performed using diclofenac, a representative non-steroidal anti-inflammatory drug (NSAID), as stomach damage inducing factor to evaluate the effect of the Momordicae semen extract of Example 1 for treating gastritis. The Momordicae semen extract was dissolved in 0.5% aqueous carboxymethyl cellulose solution to 10 mg/mL and was used as a test drug. Stillen (artemisia extract, Dong-A Pharmaceutical) and Mucosta (rebamipide, Korea Otsuka Pharmaceuticals) dissolved in 0.5% aqueous carboxymethyl cellulose solution to 10 mg/mL were used as control drugs.
as §2, with “40 mg/kg. After 6 hours of stomach damage inducement,” for “40 mg/kg and, at”, “the Momordicae semen extract” for “the same time, the test drug, or momordica saponin I, was orally administered at a dosage of 20 mg/kg”, “control drugs Stillen and” for “control drug”, “Mucosta were” for “Mucosta was orally”, “mg/kg. 18” for “mg/kg. 4”, “to 3.” for “to 3 (The higher the point, the severer the damage).”

[6] = tested on: damage of gastric mucosa induced by alcohol; assay: Protective effect against stomach damage induced by alcohol (Momordicae semen extract, Example 1); assay type: in vivo, Sprague-Dawley rats; conditions: rat, drugs 100 mg/kg 1 hour before 1.5 mL 100% ethanol oral, stomach observed 6 hours later
Method: A rat model test was performed using 100% ethanol as stomach damage inducing factor to evaluate the protective effect of the Momordicae semen extract for gastric mucosa. The Momordicae semen extract of Preparative Example 1 was dissolved in 0.5% aqueous carboxymethyl cellulose solution to 10 mg/mL and was used as a test drug. Stillen (artemisia extract, Dong-A Pharmaceutical) and Mucosta (rebamipide, Korea Otsuka Pharmaceuticals) dissolved in 0.5% aqueous carboxymethyl cellulose solution to 10 mg/mL were used as control drugs.
as §1, with “available. The Momordicae semen extract” for “available. Momordica saponin I were administered at a dosage of 20 mg/kg”, “control drugs Stillen and” for “control drug”, “After 1 hour,” for “After 30 minutes,”, “administered. 6” for “administered. 3”, “was categorized” for “was classified”, “to 3.” for “to 3 (the higher the point, the severer the damage.).”

[7] = tested on: stomach damage induced by diclofenac; assay: Protective effect against stomach damage induced by diclofenac, simultaneous abdominal administration (Example 4); assay type: in vivo, Sprague-Dawley rats; conditions: rat, diclofenac 40 mg/kg oral and at the same time drugs 100 mg/kg abdominally, observed 6 hours later
Method: Differently from Example 3, diclofenac and the test drug were administered simultaneously and the damage of gastric mucosa was observed 6 hours later. In order to prevent the direct interaction between diclofenac and the test drug, the test drug was administered abdominally. Similar to that in Example 3, diclofenac and the test drug were dissolved in 0.5% aqueous carboxymethyl cellulose solution to 10 mg/mL.
as §2, with “or the Momordicae semen extract,” for “or momordica saponin I, was orally administered at a dosage of 20 mg/kg”, “control drugs Stillen and” for “control drug”, “Mucosta were abdominally” for “Mucosta was orally”, “mg/kg. 6” for “mg/kg. 4”, “to 3.” for “to 3 (The higher the point, the severer the damage).”

| SMILES | gastric mucosa damage index ± standard deviation: Total [1] | gastric mucosa damage index ± standard deviation: Bleeding [1] | gastric mucosa damage index ± standard deviation: Edema [1] | gastric mucosa damage index ± standard deviation: Erosion [1] | gastric mucosa damage index ± standard deviation: Flare [1] | gastric mucosa damage index ± standard deviation: Hyperemia [1] | gastric mucosa damage index ± standard deviation: Erosion [3] | gastric mucosa damage index ± standard deviation: Total [4] | gastric mucosa damage index ± standard deviation: Bleeding [4] | gastric mucosa damage index ± standard deviation: Edema [4] | gastric mucosa damage index ± standard deviation: Flare [4] | gastric mucosa damage index ± standard deviation: Hyperemia [4] | also measured |
| --- | --- | --- | --- | --- | --- | --- | --- | --- | --- | --- | --- | --- | --- |
| CC1OC(OC2C(O)C(C(=O)O)OC(OC3CCC4(C)C(CCC5(C)C4CC=C4C6CC(C)(C)CCC6(C(=O)OC6OC(C)C(O)C(O)C6OC6OC(C)C(OC7OCC(O)C(O)C7O)C(OC7OC(CO)C(O)C(OC8OCC(O)C(O)C8O)C7O)C6O)CCC45C)C3(C)C=O)C2OC2OC(CO)C(O)C(O)C2O)C(O)C(O)C1O [Momordica saponin I, 3-O-β-D-galactopyranosyl(1->2)-[α-L-rhamnopyranosyl(1->3)]-β-D-glucuronopyranosido-28-O-β-D-xylopyranosyl(1->3)-β-D-glucopyranosyl(1->3)-[β-D-xylopyranosyl(1->4)]-α-L-rhamnopyranosyl(1->2)-β-D-fucopyranosylgypsogenin] | 4.4 ± 1.1 | 0.9 ± 0.2 | 1 ± 0.3 | 0.5 ± 0.1 | 1.1 ± 0.2 | 0.9 ± 0.3 | 1.3 ± 0.3 | 5.2 ± 1.2 | 0.7 ± 0.2 | 1 ± 0.2 | 1.3 ± 0.2 | 0.9 ± 0.3 | clinical manifestation or death (Sprague-Dawley rats; once at a dosage of 400 mg/kg): no noticeable clinical manifestation or death; toxicity in body weight change, hematological and serum biochemical analysis and autopsy (Sprague-Dawley rats; once at a dosage of 400 mg/kg): no toxicity was found; minimum oral administration lethal dose (LD50) (Sprague-Dawley rats; single administration): ≥ 400 mg/kg; Acidity in the stomach of rats (pH ± standard deviation) ([2]; 5 mg/kg oral): 3.3 ± 0.1 pH; Acidity in the stomach of rats (pH ± standard deviation) ([2]; 15 mg/kg oral): 4.3 ± 0.8 pH; Acidity in the stomach of rats (pH ± standard deviation) ([2]; 45 mg/kg oral): 5.2 ± 0.6 pH |
| O=C(NC(Cc1cc(=O)[nH]c2ccccc12)C(=O)O)c1ccc(Cl)cc1 (stereo not drawn) [Mucosta, rebamipide] | 6.1 ± 1.2 | 1.4 ± 0.2 | 1.2 ± 0.3 | 0.9 ± 0.3 | 1.2 ± 0.2 | 1.4 ± 0.2 | 2.2 ± 0.4 | 8.5 ± 1.5 | 1.5 ± 0.3 | 1.2 ± 0.1 | 2.3 ± 0.3 | 1.3 ± 0.4 | gastric mucosa damage index: Total [5]: 7.4 ± 0.7; gastric mucosa damage index: Bleeding ([5]; points 0 to 3): 1.2 ± 0.2; gastric mucosa damage index: Edema ([5]; points 0 to 3): 2.2 ± 0.2; gastric mucosa damage index: Erosion ([5]; points 0 to 3): 2.4 ± 0.2; gastric mucosa damage index: Flare ([5]; points 0 to 3): 0.8 ± 0.4; gastric mucosa damage index: Hyperemia ([5]; points 0 to 3): 0.8 ± 0.4; gastric mucosa damage index: Total [6]: 8.1 ± 0.8; gastric mucosa damage index: Bleeding ([6]; points 0 to 3): 1.5 ± 0.2; gastric mucosa damage index: Edema ([6]; points 0 to 3): 1.3 ± 0.2; gastric mucosa damage index: Erosion ([6]; points 0 to 3): 1.8 ± 0.2; gastric mucosa damage index: Flare ([6]; points 0 to 3): 1.3 ± 0.2; gastric mucosa damage index: Hyperemia ([6]; points 0 to 3): 1.3 ± 0.4; gastric mucosa damage index: Total [7]: 9.8 ± 1.2; gastric mucosa damage index: Bleeding ([7]; points 0 to 3): 1.4 ± 0.5; gastric mucosa damage index: Edema ([7]; points 0 to 3): 1.2 ± 0.2; gastric mucosa damage index: Erosion ([7]; points 0 to 3): 2.4 ± 0.4; gastric mucosa damage index: Flare ([7]; points 0 to 3): 2.6 ± 0.2; gastric mucosa damage index: Hyperemia ([7]; points 0 to 3): 2.2 ± 0.4 |
